Source: ChEMBL document CHEMBL1145934, “Novel sst(4)-selective somatostatin (SRIF) agonists. 2. Analogues with beta-methyl-3-(2-naphthyl)alanine substitutions at position 8” (J Med Chem, 2003)

How the values were obtained:
[1] = molecular target: Somatostatin receptor type 3 (Homo sapiens, UniProt P32745); test: Binding affinity at human Somatostatin receptor type 3 by [125I][Leu8,D-Trp22,Tyr25]SRIF-28 displacement.
[2] = molecular target: Somatostatin receptor type 2 (Homo sapiens, UniProt P30874); test: Binding affinity at human Somatostatin receptor type 2 by [125I][Leu8,D-Trp22,Tyr25]SRIF-28 displacement.
Chain of Somatostatin receptor type 2 (P30874 whole entry): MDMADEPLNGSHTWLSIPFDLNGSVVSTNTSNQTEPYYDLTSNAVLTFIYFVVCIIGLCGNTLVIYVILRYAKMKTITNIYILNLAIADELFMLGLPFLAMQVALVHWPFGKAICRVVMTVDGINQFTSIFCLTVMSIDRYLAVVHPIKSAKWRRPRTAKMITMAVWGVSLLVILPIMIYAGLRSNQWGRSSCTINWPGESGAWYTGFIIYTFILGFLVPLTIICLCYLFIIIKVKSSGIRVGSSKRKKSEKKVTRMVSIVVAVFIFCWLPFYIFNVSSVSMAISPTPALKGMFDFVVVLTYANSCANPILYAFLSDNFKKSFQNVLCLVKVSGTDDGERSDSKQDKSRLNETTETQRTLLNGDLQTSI

[3] = molecular target: Somatostatin receptor type 5 (Homo sapiens, UniProt P35346); test: Binding affinity at human Somatostatin receptor type 5 by [125I][Leu8,D-Trp22,Tyr25]SRIF-28 displacement.
Chain of Somatostatin receptor type 5 (P35346 whole entry): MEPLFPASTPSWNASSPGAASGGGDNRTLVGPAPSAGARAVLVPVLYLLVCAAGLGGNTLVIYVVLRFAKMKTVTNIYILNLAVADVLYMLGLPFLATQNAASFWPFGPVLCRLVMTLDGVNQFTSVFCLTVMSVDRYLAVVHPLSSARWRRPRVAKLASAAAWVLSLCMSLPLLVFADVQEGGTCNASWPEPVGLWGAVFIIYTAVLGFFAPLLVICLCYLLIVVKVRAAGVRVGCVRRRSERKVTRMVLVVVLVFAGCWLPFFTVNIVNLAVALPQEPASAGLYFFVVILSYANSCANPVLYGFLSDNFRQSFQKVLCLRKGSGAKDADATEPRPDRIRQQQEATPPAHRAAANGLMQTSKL

[4] = molecular target: Somatostatin receptor type 1 (Homo sapiens, UniProt P30872); test: Binding affinity at human Somatostatin receptor type 1 by [125I][Leu8,D-Trp22,Tyr25]SRIF-28 displacement.
Chain of Somatostatin receptor type 1 (P30872 whole entry): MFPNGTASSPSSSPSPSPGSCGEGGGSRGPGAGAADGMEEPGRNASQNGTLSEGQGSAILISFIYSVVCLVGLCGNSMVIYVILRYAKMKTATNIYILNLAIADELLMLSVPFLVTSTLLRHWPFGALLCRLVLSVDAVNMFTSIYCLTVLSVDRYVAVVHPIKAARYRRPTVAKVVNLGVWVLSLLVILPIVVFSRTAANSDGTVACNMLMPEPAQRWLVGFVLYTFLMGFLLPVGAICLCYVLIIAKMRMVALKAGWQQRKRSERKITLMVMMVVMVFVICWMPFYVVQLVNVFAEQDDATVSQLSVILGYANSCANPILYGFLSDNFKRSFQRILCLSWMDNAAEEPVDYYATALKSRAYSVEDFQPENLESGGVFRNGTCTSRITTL

[5] = molecular target: Somatostatin receptor type 4 (Homo sapiens, UniProt P31391); test: Binding affinity at human Somatostatin receptor type 4 by [125I][Leu8,D-Trp22,Tyr25]SRIF-28 displacement.
Chain of Somatostatin receptor type 4 (P31391 whole entry): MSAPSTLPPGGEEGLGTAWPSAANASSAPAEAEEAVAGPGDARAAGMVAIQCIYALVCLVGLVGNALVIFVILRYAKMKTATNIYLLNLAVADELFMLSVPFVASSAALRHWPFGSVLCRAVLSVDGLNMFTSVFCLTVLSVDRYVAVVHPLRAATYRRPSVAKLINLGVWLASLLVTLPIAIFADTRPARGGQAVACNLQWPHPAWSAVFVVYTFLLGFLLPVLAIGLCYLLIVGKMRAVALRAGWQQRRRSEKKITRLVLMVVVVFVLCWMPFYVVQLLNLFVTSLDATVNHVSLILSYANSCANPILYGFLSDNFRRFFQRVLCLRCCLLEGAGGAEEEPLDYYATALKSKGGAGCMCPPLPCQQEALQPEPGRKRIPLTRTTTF

Chain of Somatostatin receptor type 3 (P32745 whole entry): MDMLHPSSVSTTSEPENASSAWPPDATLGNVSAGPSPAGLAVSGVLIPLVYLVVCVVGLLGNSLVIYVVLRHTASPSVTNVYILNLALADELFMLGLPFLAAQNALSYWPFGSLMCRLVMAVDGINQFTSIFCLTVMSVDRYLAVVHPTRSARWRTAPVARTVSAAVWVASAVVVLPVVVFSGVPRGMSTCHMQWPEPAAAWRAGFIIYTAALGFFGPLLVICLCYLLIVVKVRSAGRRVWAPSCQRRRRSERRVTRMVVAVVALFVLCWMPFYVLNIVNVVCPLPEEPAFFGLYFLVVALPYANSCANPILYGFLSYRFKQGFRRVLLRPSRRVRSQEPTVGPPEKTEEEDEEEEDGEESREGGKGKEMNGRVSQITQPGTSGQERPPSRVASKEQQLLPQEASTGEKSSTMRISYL

| SMILES | IC50 [1] [nM] | IC50 [2] [nM] | IC50 [3] [nM] | IC50 [4] [nM] | IC50 [5] [nM] |
| --- | --- | --- | --- | --- | --- |
| COC(=O)[C@H](CCCN=C(N)N)NC(=O)CCCc1c(-c2ccccc2)[nH]c2c(F)cc(F)cc12 | > 10000 | > 10000 | – | – | – |
| C[C@@H](O)[C@@H]1NC(=O)[C@H](CCCCN)NC(=O)[C@H]([C@@H](C)c2ccc3ccccc3c2)NC(=O)[C@H](Cc2ccc(O)cc2)NC(=O)[C@H](Cc2ccccc2)NC(=O)[C@@H](N)CSSC[C@@H](C(=O)O)NC(=O)[C@H](Cc2ccccc2)NC1=O | 600 | 110 | 147 | > 1000 | 2.1 |
| C[C@H](c1ccc2ccccc2c1)[C@@H]1NC(=O)[C@H](Cc2ccc(N)cc2)NC(=O)[C@H](Cc2ccccc2)NC(=O)[C@H](NC(=O)[C@@H](N)Cc2ccc(O)cc2)CSSC[C@@H](C(=O)O)NC(=O)[C@H](Cc2ccccc2)NC(=O)[C@H]([C@@H](C)O)NC(=O)[C@H](CCCCN)NC1=O | 595 | 474 | > 1000 | > 1000 | 61 |
| C[C@@H](O)[C@H]1NC(=O)[C@H](CCCCN)NC(=O)[C@@H]([C@@H](C)c2ccc3ccccc3c2)NC(=O)[C@H](Cc2ccc(N)cc2)NC(=O)[C@@H](Cc2ccccc2)NC(=O)[C@H](N)CSSC[C@@H](C(=O)O)NC(=O)[C@H](Cc2ccccc2)NC1=O | > 1000 | 575 | > 10000 | > 10000 | 6.9 |
| C[C@H](c1ccc2ccccc2c1)[C@H]1NC(=O)[C@H](Cc2ccc(O)cc2)NC(=O)[C@@H](Cc2ccccc2)NC(=O)[C@H](N)CSSC[C@@H](C(=O)O)NC(=O)[C@H](Cc2ccccc2)NC(=O)[C@@H]([C@@H](C)O)NC(=O)[C@H](CCCCN)NC1=O | > 1000 | > 10000 | > 10000 | > 10000 | > 1000 |
| C[C@@H](O)[C@H]1NC(=O)[C@H](CCCCN)NC(=O)[C@@H]([C@@H](C)c2ccc3ccccc3c2)NC(=O)[C@H](Cc2ccccc2)NC(=O)[C@@H](Cc2ccccc2)NC(=O)[C@H](N)CSSC[C@@H](C(=O)O)NC(=O)[C@H](Cc2ccc(O)cc2)NC1=O | 325 | 357 | 700 | > 1000 | 11.8 |
| C[C@@H](O)[C@@H]1NC(=O)[C@H](CCCCN)NC(=O)[C@@H]([C@@H](C)c2ccc3ccccc3c2)NC(=O)[C@H](Cc2ccc(O)cc2)NC(=O)[C@H](Cc2ccccc2)NC(=O)[C@@H](N)CSSC[C@@H](C(=O)O)NC(=O)[C@H](Cc2ccccc2)NC1=O | > 10000 | > 1000 | > 1000 | > 1000 | 105 |
| C[C@@H](O)[C@@H]1NC(=O)[C@H](CCCCN)NC(=O)[C@@H]([C@@H](C)c2ccc3ccccc3c2)NC(=O)[C@H](Cc2ccc(O)cc2)NC(=O)[C@H](Cc2ccccc2)NC(=O)[C@H](N)CSSC[C@@H](C(=O)O)NC(=O)[C@H](Cc2ccccc2)NC1=O | – | – | – | – | 0.53 |

More lines, in order of falling IC50 [1], values ahead:

| IC50 [1] [nM] | IC50 [2] [nM] | IC50 [3] [nM] | IC50 [4] [nM] | IC50 [5] [nM] | SMILES |
| --- | --- | --- | --- | --- | --- |
| 186 | 102 | 101 | > 1000 | 8.7 | C[C@H](c1ccc2ccccc2c1)[C@@H]1NC(=O)[C@H](Cc2ccc(N)cc2)NC(=O)[C@@H](Cc2ccccc2)NC(=O)[C@H](N)CSSC[C@@H](C(=O)O)NC(=O)[C@H](Cc2ccccc2)NC(=O)[C@@H]([C@@H](C)O)NC(=O)[C@H](CCCCN)NC1=O |
| 171 | 204 | 127 | > 1000 | 9.8 | C[C@@H](O)[C@@H]1NC(=O)[C@H](CCCCN)NC(=O)[C@@H]([C@@H](C)c2ccc3ccccc3c2)NC(=O)[C@H](Cc2ccc(N)cc2)NC(=O)[C@H](Cc2ccccc2)NC(=O)[C@H](NC(=O)[C@@H](N)Cc2ccc(O)cc2)CSSC[C@@H](C(=O)O)NC(=O)[C@H](Cc2ccccc2)NC1=O |
| 18 | 30 | 17.5 | 410 | 2.2 | C[C@H](c1ccc2ccccc2c1)[C@@H]1NC(=O)[C@H](Cc2ccc(O)cc2)NC(=O)[C@H](Cc2ccccc2)NC(=O)[C@@H](N)CSSC[C@@H](C(=O)O)NC(=O)[C@H](Cc2ccccc2)NC(=O)[C@H]([C@@H](C)O)NC(=O)[C@H](CCCCN)NC1=O |
| 12 | 16 | 47 | > 1000 | 9.2 | C[C@H](c1ccc2ccccc2c1)[C@@H]1NC(=O)[C@H](Cc2ccccc2)NC(=O)[C@@H](Cc2ccccc2)NC(=O)[C@H](N)CSSC[C@@H](C(=O)O)NC(=O)[C@H](Cc2ccc(O)cc2)NC(=O)[C@@H]([C@@H](C)O)NC(=O)[C@H](CCCCN)NC1=O |
